Measurements from publication PMC9937801 (Journal of Pharmaceutical Analysis, 2022).

Target: squalene epoxidase (SQLE) (Homo sapiens, UniProt Q14534)
Experiment: SPR
Format: binding

Sequence of squalene epoxidase (SQLE) (Q14534 whole entry): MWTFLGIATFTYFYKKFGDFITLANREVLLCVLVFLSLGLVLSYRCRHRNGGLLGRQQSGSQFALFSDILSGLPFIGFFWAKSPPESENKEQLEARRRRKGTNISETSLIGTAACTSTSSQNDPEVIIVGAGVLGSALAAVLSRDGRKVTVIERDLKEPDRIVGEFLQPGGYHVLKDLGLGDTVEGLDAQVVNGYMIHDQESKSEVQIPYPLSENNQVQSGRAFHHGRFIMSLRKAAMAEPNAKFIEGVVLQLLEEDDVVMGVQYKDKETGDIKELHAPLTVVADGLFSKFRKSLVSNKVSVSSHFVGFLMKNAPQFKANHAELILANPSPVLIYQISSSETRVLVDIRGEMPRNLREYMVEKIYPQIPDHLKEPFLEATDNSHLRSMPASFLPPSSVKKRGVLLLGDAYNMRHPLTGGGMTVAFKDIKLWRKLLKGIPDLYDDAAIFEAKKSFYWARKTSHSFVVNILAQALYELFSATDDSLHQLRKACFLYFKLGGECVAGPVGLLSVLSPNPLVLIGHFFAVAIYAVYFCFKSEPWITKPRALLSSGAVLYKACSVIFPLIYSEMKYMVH

**Q.** For `C[C@@H]1CC[C@@]2(OC1)O[C@H]1C[C@H]3[C@@H]4CC=C5C[C@@H](O[C@@H]6O[C@H](CO)[C@@H](O[C@@H]7O[C@@H](CO)[C@H](O)[C@H]7O)[C@H](O)[C@H]6O[C@@H]6O[C@@H](C)[C@H](O)[C@@H](O)[C@H]6O)CC[C@]5(C)[C@H]4CC[C@]3(C)[C@H]1[C@@H]2C` [PPI, Polyphyllin I], which Kd is on record?
**A.** Its Kd is 26.3 µM.
